Values quoted from earlier work in patent US20230066947A1, “Method for the augmentation of substance abuse therapies using cannabinoid formulations” (priority 2021, published 2023).
Read-outs that look alike come from different tables or passages of the source.

Assays:
[1] = test system: specific serotonin receptor linked to anti-nausea and anti-anxiety effects
COX-2 = biological target: T1, COX-2 (Homo sapiens, UniProt P35354); conditions: compared with common NSAIDS
T1 sequence (P35354 18-604): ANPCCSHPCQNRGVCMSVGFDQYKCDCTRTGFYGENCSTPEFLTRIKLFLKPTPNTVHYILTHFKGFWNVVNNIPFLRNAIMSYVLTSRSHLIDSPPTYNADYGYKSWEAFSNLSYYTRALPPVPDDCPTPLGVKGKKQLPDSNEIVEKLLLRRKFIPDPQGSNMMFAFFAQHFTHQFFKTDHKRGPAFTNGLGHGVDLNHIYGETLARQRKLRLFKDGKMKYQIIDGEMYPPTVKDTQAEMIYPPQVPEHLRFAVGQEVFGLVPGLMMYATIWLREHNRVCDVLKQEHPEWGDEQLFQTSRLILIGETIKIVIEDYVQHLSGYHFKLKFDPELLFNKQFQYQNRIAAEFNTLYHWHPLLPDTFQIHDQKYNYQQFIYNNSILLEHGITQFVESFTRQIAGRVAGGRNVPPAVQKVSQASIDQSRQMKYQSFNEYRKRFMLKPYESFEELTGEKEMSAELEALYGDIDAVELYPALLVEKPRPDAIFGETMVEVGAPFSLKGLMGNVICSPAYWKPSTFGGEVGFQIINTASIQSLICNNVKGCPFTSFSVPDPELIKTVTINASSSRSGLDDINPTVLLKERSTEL

In the case of C=C(C)[C@@H]1CCC(C)=C[C@H]1c1c(O)cc(CCCCC)c(C(=O)O)c1O [CBDA], the “affinity to bind to a specific serotonin receptor” value [1] is given as “far greater affinity”, the bioavailability (intraperitoneal administration) is given as 80% and the bioavailability (orally ingested) is given as “approximately 20%”. The COX-2 inhibitor behavior (COX-2) was “same COX-2 inhibitor behavior”.
